In patent publication US6337182B1, “Method for the quantitative determination of DNA sequences” (Dade Behring Marburg GmbH, priority 1990, dated 2002):
Values joined by “and” are separate entries in the source; they are usually repeats but may differ in a detail not shown here. Identical values can stand only once.

Tested on: TaqI-endonuclease site TCGA (2508-2511) of exon 3 of the c-Ha-ras gene
Test: Detection of ethylnitrosourea induced mutations in the TaqI site of c-Ha-ras exon 3 in cultured human fibroblasts (selective PCR, plaque hybridization)
Assay type: cell-based
Protocol: Monolayer cultures of human foreskin fibroblasts 3229 (other cell lines of the same origin work equally well) are treated with the carcinogen ethylnitrosourea (ENU, 2mM) in DMSO or sham-treated with DMSO only and harvested 3 days later. Total DNA is extracted and digested exhaustively with BamHI yielding a 6.6 Kb fragment containing the c-Ha-ras gene. The digestion mixture is separated on a 1% agarose gel and the DNA in the region from 6.0-7.0 Kb eluted in a “Biotrap” apparatus as described in Example I. The completeness of the BamHI digestion and the recovery of the c-Ha-ras sequences from the gel are monitored by Southern-blotting with a 6.6 Kb c-Ha-ras probe. “Biotrap” purified DNA (6.0-7.0 Kb, corresponding to 25 μg BamHI digested genomic DNA) is then exhaustively digested with TaqI endonuclease and a fragment containing the TaqI site 2508-2511 (TCGA) of the c-Ha-ras gene amplified as described below and illustrated in FIG. 2. At the outset of the amplification 10 copies of an authentic “standard” sequence are added which contain the sequence ACGT at residues 2508-2511 (and a G-instead of the C residue at position 2503), but are otherwise identical to wt c-Ha-ras.
The digested DNA was amplified, utilizing a “nested primer approach” to selectively amplify only DNA containing a mutated TaqI restriction site.
1. Amplification Cycles 1-15. The cycles 1-15 were conducted with the outer primers (see FIG. 2) yielding a 237 bp fragment. Each cycle consists of a melting temperature of 81° C. (1.1 min), an annealing temperature of 55° C. (0.8 min), and an extension temperature of 65° C. (0.3 min). The initial contents of each amplification tube are as follows: 2.5 μl of “digested DNA” (i.e. TaqI digested 6.0-7.0 Kb BamHI fragment population described above); 0.75 μg of each outer primer (primers 1 and 2, see FIG. 2); 25 mM each of dATP, dCTP, dGTP and dTTP; 21% DMSO; 66.6 mM Tris-HCl, pH 8.8, 16.6 mM ammonium sulfate; 6.7 mM magnesium chloride; 10 mM 2-merc:aptoethanol, 6.7 μM EDTA, and 1.5 units Taq polymerase, in a total volume of 25 μl. To prevent evaporation during temperature cycling, an overlay of 3-4 drops of paraffin oil is added to each tube. (Note: Taq polymerase is added to the tubes after an initial melting period of 3 minutes at 92° C. Subsequently, one μl additions of a TaqI endonuclease-containing TaqI Mix are made to the appropriate amplification tubes during the annealing periods of cycles 1, 3, 5, 7 , 9, 11, 13 and 15). The TaqI mix contains 25 mM each of DATP, dCTP, dGTP and dTTP; 21% DMSO; 66.6 mM Tris-HC1, pH 8.8; 16.6 mM ammonium sulfate; 6.7 mM magnesium chloride; 10 mM 2-mercaptoethanol; 6.7 μm EDTA; 0.12 units/μl Taq polymerase and 1.2 units/μl TaqI endonuclease.
Amplification cycles 16-25 are conducted at a higher melting temprature (91° C.) and a lower DMSO concentration (12%) with the outer primers (primers 1 and 2, see FIG. 2). Each cycle consists of a melting temperature of 91° C. (0.8 min) and an annealing temperature of 57° C. (0.4 min). After the 15th cycle, the DMSO concentration is reduced to 12% by transferring 16 μl of each amplification solution to new tubes which contain 11 μl of a DMSO-free mixture consisting of 229 ng of each outer primer/11 μl; 25 mM each of dATP, dCTP, dGTP and dTTP; 66.6 mM Tris-HCl, pH 8.8; 16.6 mM ammonium sulfate; 6.7 mM magnesium chloride, 10 mM 2.-mercaptoethanol and 6.7 μM EDTA. Paraffin oil (3 drops) is added to each tube and the 16th cycle begun with an initial melting period of 3 min at 92° C., after which 1.5 units of Taq polymerase is added to each tube.
Amplification cycles 26-41 are conducted with the inner primers (primers 3 and 4, see FIG. 2), which contain “EcoRI tails” to facilitate later ligation into phage arms. With the chosen inner primers a 184 bp fragment is synthesized. In order to reduce competition between outer and inner primers, the outer primer concentration is reduced by a factor of 121 relative to the inner primer concentration. […]

[1] = mean of 4 Petri dishes, 2 mM ethylnitrosourea, human fibroblasts (3229)

## CCN(N=O)C(N)=O [ethylnitrosourea]
25 μg DNA, 10 copies of standard gave 17% plaques, mutation 7%
  copies of mutated sequence TCTA in the original DNA sample: 6 copies
2 mM ethylnitrosourea, human fibroblasts (3229)
  plaques containing wt sequence DNA or any of the remaining 11 possible base-pair mutations: No plaques were detected
2 mM, human fibroblasts 3229, estimated against 10 copies of standard sequence
  frequency of induced base-pair mutation TCGA→TCTA at sequence 2508-2511 of the human c-Ha-ras gene: ~7.5 mutations in 10^7 c-Ha-ras genes
TCGA→TCTA, 2 mM, human fibroblasts 3229, 25 μg DNA
  mutation frequency: ~7.5×10^−7 per c-Ha-ras gene
[1]
  plaques containing mutated sequence TCTA, mean: 13.2
  plaques containing mutated sequence TCTA, mean share: (7%)
Number of plaques per Petri dish, DNA from 3 × 10^6 human fibroblasts (3229) treated with 2 mM ethylnitrosourea, harvested 3 days later
  plaques containing mutated sequence TCTA: 16 and 13 and 12
